Experimental data reported in patent US8791144B2, “Substituted N-phenyl-1-(4-Pyridinyl)-1H-pyrazol-3-amines” (Janssen Pharmaceutica NV, priority 2009, dated 2014).

Legend:
hα7-wt nAChR = hα7-wt nAChR (Homo sapiens, UniProt P36544); test: Ca2+ flux imaging (FDSS): potentiation of the choline response; type: cell-based; conditions: Ca2+ assay as described in D.1, potentiation of choline response, hα7-wt nAChR; for EC50: read-out: Potency (pEC50) (converted); for Emax: read-out: % Efficacy
Protocol: • a) Assay Buffer • Hanks buffered saline solution (HBSS, Invitrogen, Belgium), supplemented with 10 mM HEPES (Invitrogen, Belgium), CaCl2 to a final concentration of 5 mM, 0.1% Bovine serum albumin (Sigma-Aldrich NV, Belgium). • b) Calcium-Sensitive Dye—Fluo-4AM • Fluo-4AM (Molecular Probes, USA) was dissolved in DMSO containing 10% Pluronic acid (Molecular Probes, USA) to give a stock solution which was diluted in assay buffer supplemented with 5 mM probenicid (Sigma, Aldrich NV, Belgium) to give a final concentration of 2 μM. • c) 384-Well Plates • Black 384 well plate black/clear plates, PDL pre-coated (Corning, Incorporated, USA) • d) Calcium Flux Measurement • A Functional drug screening system (FDSS, Hamamatsu) was used to measure intracellular free-calcium flux signals. Method
Monolayers of hα7-wt nAChR-expressing cells were grown in multi-well plates, in particular black-sided, transparent bottomed 384 well plates coated with poly-D-lysine for 24 hours prior to loading with a fluorescent calcium indicator, in a particular embodiment loading with fluo-4AM for up to 120 minutes.
PAM activity was detected in real time by applying the compounds to be tested to the loaded cells along with a α7 nicotinic receptor agonist during constant monitoring of cellular fluorescence in a FDSS. Compounds giving peak fluorescent responses greater than the response due to agonist alone, were considered to be α7 nAChR PAM's. In a particular embodiment, the α7 nicotinic receptor agonist was choline, a more particular embodiment choline applied at a sub-maximal concentration of 100 μM. In a further setting of the present invention the compounds to be tested were applied prior to the α7 nicotinic receptor agonist, in a particular embodiment up to 10 minutes prior to the agonist.
A control response to choline was calculated on each plate from the difference in peak in fluorescence in wells receiving either choline or assay buffer alone. Compounds of the present invention were tested at a concentration range from 0.01 μM to 30 μM. Compounds were considered to have an interesting activity when they potentiated the choline signal at least with 200% when tested at a concentration of 30 μM (the efficacy of 100 μM choline was defined as 100% in the absence of a PAM). An EC50 (or pEC50) was determined as a concentration relating to half the maximal effect, when a clear sigmoidal curve with top plateau was obtained.

Sequence of hα7-wt nAChR (P36544 23-502): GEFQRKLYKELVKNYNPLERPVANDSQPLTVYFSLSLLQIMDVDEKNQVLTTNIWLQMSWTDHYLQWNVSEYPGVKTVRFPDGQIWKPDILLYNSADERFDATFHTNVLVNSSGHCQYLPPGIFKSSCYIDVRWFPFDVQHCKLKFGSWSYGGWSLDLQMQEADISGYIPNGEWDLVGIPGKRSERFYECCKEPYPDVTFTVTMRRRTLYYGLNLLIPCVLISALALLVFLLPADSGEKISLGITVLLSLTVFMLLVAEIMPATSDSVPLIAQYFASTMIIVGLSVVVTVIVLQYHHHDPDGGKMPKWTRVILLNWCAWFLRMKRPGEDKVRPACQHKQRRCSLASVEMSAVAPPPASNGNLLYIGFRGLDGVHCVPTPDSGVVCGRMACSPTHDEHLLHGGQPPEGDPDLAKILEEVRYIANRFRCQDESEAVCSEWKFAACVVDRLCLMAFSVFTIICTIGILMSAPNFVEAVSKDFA

Row | Compound | EC50 (hα7-wt nAChR) [µM] | melting point [°C] | Emax (hα7-wt nAChR) [%]
1 | CC[C@@H](O)Cc1cc(Nc2cc(F)c(F)c(F)c2)nn1-c1ccnc(C)c1 [Compound 19, (alphaR)-alpha-ethyl-1-(2-methyl-4-pyridinyl)-3-[(3,4,5-trifluorophenyl)amino]-1H-pyrazole-5-ethanol] | 0.309 | 170.4 | 705
2 | Cc1cc(-n2nc(Nc3cccc(OC(F)(F)F)c3)cc2CC#N)ccn1 [Compound 107, 1-(2-methyl-4-pyridinyl)-3-[[3-(trifluoromethoxy)phenyl]amino]-1H-pyrazole-5-acetonitrile] | 2.82 | 180.2 | 
3 | CC[C@@H](O)Cc1cc(Nc2cccc(Cl)c2F)nn1-c1ccnc(C)c1 [Compound 59, (alphaR)-3-[(3-chloro-2-fluorophenyl)amino]-alpha-ethyl-1-(2-methyl-4-pyridinyl)-1H-pyrazole-5-ethanol] | 0.692 | 168.1 | 
4 | Cc1cc(-n2nc(Nc3ccc4c(c3)OC(F)(F)O4)cc2CCCOCc2ccccc2)ccn1 [Compound 104, N-(2,2-difluoro-1,3-benzodioxol-5-yl)-1-(2-methyl-4-pyridinyl)-5-[3-(phenylmethoxy)propyl]-1H-pyrazol-3-amine] | 0.562 | 124.4 | 
5 | COc1cc(Nc2cc(COCc3ccccc3)n(-c3ccnc(C)c3)n2)cc(C(F)(F)F)c1 [Compound 1, N-[3-methoxy-5-(trifluoromethyl)phenyl]-1-(2-methyl-4-pyridinyl)-5-[(phenylmethoxy)methyl]-1H-pyrazol-3-amine] | 1.45 | 148.1 | 
6 | CC[C@@H](O)Cc1cc(Nc2cc(F)cc(Cl)c2)nn1-c1ccnc(C)c1 [Compound 60, (alphaR)-3-[(3-chloro-5-fluorophenyl)amino]-alpha-ethyl-1-(2-methyl-4-pyridinyl)-1H-pyrazole-5-ethanol] | 0.24 | 182.4 | 
7 | CC[C@@H](O)Cc1cc(Nc2cc(Cl)cc(OC)c2)nn1-c1ccnc(C)c1 [Compound 62, (alphaR)-3-[(3-chloro-5-methoxyphenyl)amino]-alpha-ethyl-1-(2-methyl-4-pyridinyl)-1H-pyrazole-5-ethanol] | 0.427 | 121.9 | 
8 | Cc1cc(-n2nc(Nc3ccc(F)c(F)c3)cc2CCCOCc2ccccc2)ccn1 [Compound 32, N-(3,4-difluorophenyl)-1-(2-methyl-4-pyridinyl)-5-[3-(phenylmethoxy)propyl]-1H-pyrazol-3-amine] | 1.02 | 108.2 | 
9 | COc1cc(Nc2cc(CCCO)n(-c3ccnc(C)c3)n2)cc(C(F)(F)F)c1 [Compound 7, 3-[[3-methoxy-5-(trifluoromethyl)phenyl]amino]-1-(2-methyl-4-pyridinyl)-1H-pyrazole-5-propanol] | 2.88 |  | 
10 | Cc1cc(-n2nc(Nc3ccc(F)c(F)c3)cc2C)ccn1 [Compound 14, N-(3,4-difluorophenyl)-5-methyl-1-(2-methyl-4-pyridinyl)-1H-pyrazol-3-amine] | 3.39 | 169.2 | 

Further lines, results first:

Row | EC50 (hα7-wt nAChR) [µM] | melting point [°C] | Emax (hα7-wt nAChR) [%] | Compound
11 | 0.316 | 144.4 |  | CC[C@@H](O)Cc1cc(Nc2ccc(F)c(F)c2F)nn1-c1ccnc(C)c1 [Compound 13, (alphaR)-alpha-ethyl-1-(2-methyl-4-pyridinyl)-3-[(2,3,4-trifluorophenyl)amino]-1H-pyrazole-5-ethanol]
12 | 2 | 115.8 |  | COC(=O)Cc1cc(Nc2cccc(OC(F)(F)F)c2)nn1-c1ccnc(C)c1 [Compound 109, 1-(2-methyl-4-pyridinyl)-3-[[3-(trifluoromethoxy)phenyl]amino]-1H-pyrazole-5-acetic acid methyl ester]
13 | 2.51 | 271.2 |  | CNC(=O)Cc1cc(Nc2ccc3c(c2)OC(F)(F)O3)nn1-c1ccnc(C)c1 [Compound 97, 3-[(2,2-difluoro-1,3-benzodioxol-5-yl)amino]-N-methyl-1-(2-methyl-4-pyridinyl)-1H-pyrazole-5-acetamide]
14 | 3.89 |  | 434 | Cc1cc(-n2nc(Nc3cccc(Cl)c3F)cc2CC#N)ccn1 [Compound 63, 3-[(3-chloro-2-fluorophenyl)amino]-1-(2-methyl-4-pyridinyl)-1H-pyrazole-5-acetonitrile]
15 | 1.95 | 183.8 | 930 | COc1cc(Nc2cc(CC#N)n(-c3ccnc(C)c3)n2)cc(C(F)(F)F)c1 [Compound 3, 3-[[3-methoxy-5-(trifluoromethyl)phenyl]amino]-1-(2-methyl-4-pyridinyl)-1H-pyrazole-5-acetonitrile]
16 |  | 252.9 |  | CNC(=O)Cc1cc(Nc2ccc(F)c(F)c2)nn1-c1ccnc(C)c1 [Compound 27, 3-[(3,4-difluorophenyl)amino]-N-methyl-1-(2-methyl-4-pyridinyl)-1H-pyrazole-5-acetamide]
17 | 0.372 | 139.8 |  | Cc1cc(-n2nc(Nc3cccc(OC(F)(F)F)c3)cc2COCc2ccccc2)ccn1 [Compound 122, 1-(2-methyl-4-pyridinyl)-5-[(phenylmethoxy)methyl]-N-[3-(trifluoromethoxy)phenyl]-1H-pyrazol-3-amine]
18 | 2.82 | 155.3 |  | Cc1cc(-n2nc(Nc3ccc(F)c(F)c3)cc2CO)ccn1 [Compound 15, 3-[(3,4-difluorophenyl)amino]-1-(2-methyl-4-pyridinyl)-1H-pyrazole-5-methanol]
19 | 4.37 |  |  | Cc1cc(-n2nc(Nc3cccc(C(F)(F)F)c3)cc2CC#N)ccn1 [Compound 40, 1-(2-methyl-4-pyridinyl)-3-[[3-(trifluoromethyl)phenyl]amino]-1H-pyrazole-5-acetonitrile]
